Results from PubChem BioAssay AID488892 (Sanford-Burnham Center for Chemical Genomics, 2010).
Active and inactive are the calls of the source.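 Rule for the calls: active = mean IC50 below a set limit; inactive = the rest.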

Molecular target: Alkaline phosphatase, placental type (Homo sapiens) (UniProt P05187)
Experiment: PLAP enzyme inhibitors, dose response, selectivity assay for human IAP inhibitor project, biochemical, uHTS hits, luminescence (AID 488892)
Conditions: purified PLAP, CDP-Star luminescence, 30 min

| SMILES | IC50 |
| --- | --- |
| O=C1C2C3C=CC(C3)C2C(=O)N1c1n[nH]c(-c2cccnc2)n1 (stereo not drawn) | > 100 µM (inactive) |
| Nc1ccc(-c2c3ccc(=O)cc-3oc3cc(O)ccc23)cc1C(=O)O | 29.9 µM |
| Oc1ccc(N=Nc2c(O)ccc3ccccc23)cc1 | 18.4 µM |
| C/C(=N/Nc1ccccc1[N+](=O)[O-])c1ccc([N+](=O)[O-])cc1 | > 100 µM (inactive) |
| CN(C)c1ccc(N=Nc2ccccc2Br)cc1 | 27.9 µM |
| CNc1nnc(-c2cc3ccccc3oc2=O)s1 | 4.1 µM |
| COc1cc(/C=C(\C#N)C(=O)c2ccc(O)c(O)c2)cc(I)c1O | 15.5 µM |
| CC[n+]1c(/C=C/c2c[nH]c3ccccc23)ccc2cc(C)ccc21 | 10.8 µM |
| CC(C)=CCc1c(O)ccc2c1OC(c1ccc(O)c(O)c1)CC2=O (stereo not drawn) | 44.8 µM |
| CN(C)c1ccc2nc3c(=O)[nH]c(=O)nc-3n(CC(O)C(O)C(O)CO)c2c1 (stereo not drawn) | 30.3 µM |
| O=c1c2cc(O)c(O)cc2oc2cc(O)c(C3OC(CO)C(O)C(O)C3O)c(O)c12 (stereo not drawn) | 2.71 µM |
| CCOc1cc(/C=C2/C(=O)ON=C2C)cc(Br)c1O | 35.1 µM |
| CC1=NN(Cc2ccccc2)C(=O)/C1=C\c1ccc(N(C)C)cc1 | 37.8 µM |
| c1ccc(CSCCc2ccncc2)cc1 | 30.3 µM |
| CCN(CC)c1ccc(N=Nc2nn(C)c(C)c2[N+](=O)[O-])cc1 | 49 µM |
| COc1ccc2nc3cc(Cl)ccc3c(Nc3cc(CN4CCCC4)c(O)c(CN4CCCC4)c3)c2n1 | 11.5 µM |
| COc1ccc(C=C2C(=O)c3ccccc3C2=O)cc1O | 14.7 µM |
| CCN1/C(=C\c2ccc3ccccc3[n+]2CC)Sc2cc(C)ccc21 | 28.2 µM |
| O=C1Nc2ccccc2/C1=N\N=C\c1ccc(O)c(O)c1 | 8.64 µM |
| O=C(NN1C(=O)/C(=C/c2ccc(O)c([N+](=O)[O-])c2)SC1=S)c1ccccc1Cl | 27.9 µM |
| O=C(/C=C/c1ccccc1O)c1ccco1 | 75.4 µM |
| C=CCN1C(=O)/C(=C\C=C2\N(C)c3ccccc3C2(C)C)SC1=S | 10.6 µM |
| N#C/C(=C\c1ccc(O)c(O)c1)C(=O)c1ccc(O)c(O)c1 | 5.59 µM |
